# Source: US11427561B2, “IRAK4 inhibiting agents” (BIOGEN MA INC., priority 2016, dated 2022)
# Tests used:
# A549 cells = assay: Cell-based assay: IL-6 ELISA quantification in A549 cells stimulated with human IL-1beta; conditions: 2 ng/ml human IL-1beta overnight
# Procedure: Cell-based Assay: The cell-based assays is based on IL-6 ELISA quantification. Briefly, A549 cells are cultured in DMEM with 10% FBS medium. When cells reach 80% confluence they are trypsin treated and seeded 180 ul/well in 96-well plate at 2.5×10^4 cells/well. Then, 20 ul of compound serial dilutions (starting at 10 uM, 10 points) are added to the cell plate; incubate for 30 min at 37 C and stimulated with 2 ng/ml human IL-1beta 37 C, 5% CO2 overnight. The next day 100 ul of cell supernatant per well are analyzed on a Human IL-6 Quantikine ELISA kit from R&D Systems.
# The compounds described herein were tested for in the above biochemical and cell-based assays.
# IRAK4 = IRAK4 (Homo sapiens (Human), UniProt Q9NWZ3); assay: IRAK-4 biochemical assay, AlphaScreen format (phosphorylation of a biotin labeled peptide); conditions: 1 nM IRAK4, 1.6 μM peptide, 1 mM ATP, 3.5 h at RT
# Procedure: Biochemical Assay: The biochemical assay is in a AlphaScreen format. The kinase reaction is based on the IRAK-4 phosphorylation of a biotin labeled peptide. The phosphopeptide is incubated with anti-phosphothreonine antibody as well as streptavidin- and protein A-coated beads. Binding of the protein-A coated beads to the antibody and the streptavidin beads to the peptide, leads to an energy transfer from one bead to the other, ultimately producing a luminescent/fluorescent signal.
# Generally, the kinase reaction is carried out at 1 nM IRAK4, 1.6 μM peptide, 1 mM ATP in reaction buffer 50 mM Hepes, 60 mM NaCl, 5 mM MgCl2, 0.25 mM MnCl2, 2 mM DTT, 0.01% BSA, 0.01% Tween-20) for 3.5 h at RT.
# The compounds described herein were tested for in the above biochemical assay.
# primary human astrocytes = conditions: cited from earlier work
# primary human microglia = conditions: cited from earlier work
# astrocytes and microglia = conditions: cited from earlier work
# Chain of IRAK4 (Q9NWZ3 whole entry, species assumed): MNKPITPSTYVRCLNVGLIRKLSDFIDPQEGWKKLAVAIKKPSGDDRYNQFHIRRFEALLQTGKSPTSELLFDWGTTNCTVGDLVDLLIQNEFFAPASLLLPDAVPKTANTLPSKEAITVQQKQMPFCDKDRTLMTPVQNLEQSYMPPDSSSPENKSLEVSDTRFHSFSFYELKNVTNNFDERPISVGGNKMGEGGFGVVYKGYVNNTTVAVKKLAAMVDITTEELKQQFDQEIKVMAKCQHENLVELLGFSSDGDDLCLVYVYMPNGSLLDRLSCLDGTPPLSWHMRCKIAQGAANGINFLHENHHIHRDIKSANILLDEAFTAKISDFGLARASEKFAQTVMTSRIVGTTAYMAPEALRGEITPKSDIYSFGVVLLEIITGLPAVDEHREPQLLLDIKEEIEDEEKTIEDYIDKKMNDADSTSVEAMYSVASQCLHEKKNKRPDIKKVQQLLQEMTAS
Compound,"EC50 (A549 cells; Homo sapiens, A549, A549 cells) [nM]",IC50 (IRAK4) [nM],other results
"N[C@H](c1cccc(-c2ccc3cnn(-c4cccc(CF)n4)c3c2)n1)[C@H]1C[C@@H](O)C1 [Compound 16, (1R,3s)-3-((S)-amino(6-(1-(6-(fluoromethyl)pyridin-2-yl)-1H-indazol-6-yl)pyridin-2-yl)methyl)cyclobutanol]",≤ 1000,≤ 100,–
"N[C@H](c1cncc(-c2ccc3cnn(-c4cccc(CO)n4)c3c2)n1)[C@H]1C[C@@H](O)C1 [Compound 17, cis-3-((S)-amino(6-(1-(6-(hydroxymethyl)pyridin-2-yl)-1H-indazol-6-yl)pyrazin-2-yl)methyl)cyclobutanol]",≤ 1000,≤ 100,–
"N[C@H](c1cccc(-c2cc(OCC(F)F)c3cnn(-c4cccc(CO)n4)c3c2)n1)[C@H]1C[C@@H](O)C1 [Compound 24, (1R,3s)-3-((S)-amino(6-(4-(2,2-difluoroethoxy)-1-(6-(hydroxymethyl)pyridin-2-yl)-1H-indazol-6-yl)pyridin-2-yl)methyl)cyclobutanol]",≤ 1000,≤ 100,–
"CC(O)c1ccnc(-n2ncc3ccc(-c4cccc([C@@H](N)[C@H]5C[C@@H](O)C5)n4)cc32)n1 (stereo partly drawn) [Compound 25, (1R,3s)-3-((1S)-amino(6-(1-(4-(1-hydroxyethyl)pyrimidin-2-yl)-1H-indazol-6-yl)pyridin-2-yl)methyl)cyclobutanol]",1000 to 10000,≤ 100,–
"N[C@H](c1cccc(-c2ccc3cnn(-c4cccc(CO)n4)c3c2)n1)C1CC(F)(F)C1 [Compound 26, (S)-(6-(6-(6-(amino(3,3-difluorocyclobutyl)methyl)pyridin-2-yl)-1H-indazol-1-yl)pyridin-2-yl)methanol]",≤ 1000,≤ 100,–
"N[C@@H](c1cccc(-c2ccc3cnn(-c4cccc(CO)n4)c3c2)n1)C1CC(F)(F)C1 [Compound 27, (R)-(6-(6-(6-(amino(3,3-difluorocyclobutyl)methyl)pyridin-2-yl)-1H-indazol-1-yl)pyridin-2-yl)methanol]",≤ 1000,≤ 100,–
"N[C@H](c1cccc(-c2ccc3cnn(-c4nccc(CO)n4)c3c2)n1)C1CC(F)(F)C1 [Compound 28, (S)-(2-(6-(6-(amino(3,3-difluorocyclobutyl)methyl)pyridin-2-yl)-1H-indazol-1-yl)pyrimidin-4-yl)methanol]",≤ 1000,≤ 100,–
"N[C@H](c1cccc(-c2ccc3cnn(-c4cccc(CF)n4)c3c2)n1)C1CC(F)(F)C1 [Compound 29, (S)-(3,3-difluorocyclobutyl)(6-(1-(6-(fluoromethyl)pyridin-2-yl)-1H-indazol-6-yl)pyridin-2-yl)methanamine]",≤ 1000,≤ 100,–
"N[C@H](c1cccc(-c2ccc3cnn(-c4cccc(C(F)F)n4)c3c2)n1)C1CC(F)(F)C1 [Compound 30, (S)-(3,3-difluorocyclobutyl)(6-(1-(6-(difluoromethyl)pyridin-2-yl)-1H-indazol-6-yl)pyridin-2-yl) methanamine]",≤ 1000,≤ 100,–
"CCOc1cc(-c2cccc([C@H](N)C3CC(F)(F)C3)n2)cc2c1cnn2-c1cccc(CO)n1 [Compound 33, (R)-(6-(6-(6-(amino(3,3-difluorocyclobutyl)methyl)pyridin-2-yl)-4-ethoxy-1H-indazol-1-yl)pyridin-2-yl)methanol]",≤ 1000,≤ 100,–
"CCOc1cc(-c2cccc([C@@H](N)C3CC(F)(F)C3)n2)cc2c1cnn2-c1cccc(CO)n1 [Compound 34, (S)-(6-(6-(6-(amino(3,3-difluorocyclobutyl)methyl)pyridin-2-yl)-4-ethoxy-1H-indazol-1-yl)pyridin-2-yl)methanol]",≤ 1000,≤ 100,–
"N[C@H](c1cccc(-c2ccc3cnn(-c4cccc(C(F)F)n4)c3c2)n1)C1CC(O)C1 (stereo partly drawn) [Compound 35a, 3-((S)-amino(6-(1-(6-(difluoromethyl)pyridin-2-yl)-1H-indazol-6-yl)pyridin-2-yl)methyl)cyclobutan-1-ol]",≤ 1000,≤ 100,–
"CCc1cccc(-n2ncc3ccc(-c4cccc([C@@H](N)C5CC(O)C5)n4)cc32)n1 (stereo partly drawn) [Compound 35b, 3-((S)-amino(6-(1-(6-ethylpyridin-2-yl)-1H-indazol-6-yl)pyridin-2-yl)methyl)cyclobutan-1-ol]",1000 to 10000,≤ 100,–
"COc1cccc(-n2ncc3ccc(-c4cccc([C@@H](N)C5CC(O)C5)n4)cc32)n1 (stereo partly drawn) [Compound 35e, (S)-3-(amino(6-(1-(6-methoxypyridin-2-yl)-1H-indazol-6-yl)pyridin-2-yl)methyl)cyclobutan-1-ol]",1000 to 10000,100 to 1000,–
"CC1(O)CC([C@H](N)c2cccc(-c3ccc4cnn(-c5cccc(CF)n5)c4c3)n2)C1 (stereo partly drawn) [Compound 35f, 3-((S)-amino(6-(1-(6-(fluoromethyl)pyridin-2-yl)-1H-indazol-6-yl)pyridin-2-yl)methyl)-1-methylcyclobutan-1-ol]",1000 to 10000,≤ 100,–
"CC1(O)CC([C@H](N)c2cccc(-c3ccc4cnn(-c5cccc(C(F)F)n5)c4c3)n2)C1 (stereo partly drawn) [Compound 35g, 3-((S)-amino(6-(1-(6-(difluoromethyl)pyridin-2-yl)-1H-indazol-6-yl)pyridin-2-yl)methyl)-1-methylcyclobutan-1-ol]",≤ 1000,≤ 100,–
"COC1CC([C@H](N)c2cccc(-c3ccc4cnn(-c5cccc(C(F)F)n5)c4c3)n2)C1 (stereo partly drawn) [Compound 35h, (S)-(6-(1-(6-(difluoromethyl)pyridin-2-yl)-1H-indazol-6-yl)pyridin-2-yl)(3-methoxycyclobutyl)methanamine]",≤ 1000,≤ 100,–
"CC1(O)CC([C@H](N)c2cccc(-c3ccc4cnn(-c5cccc(CF)n5)c4c3)n2)C1 (stereo partly drawn) [Compound 35i, 3-((S)-amino(6-(1-(6-(fluoromethyl)pyridin-2-yl)-1H-indazol-6-yl)pyridin-2-yl)methyl)-1-methylcyclobutan-1-ol]",–,100 to 1000,EC50 (A549 cells; A549 cells): 1000 to 10000 nM
O=C(Nc1nc2ccccc2n1CCN1CCOCC1)c1cccc([N+](=O)[O-])c1 [IRAK-1/4 inhibitor I],–,–,interleukin-1β-induced secretion of MCP-1 (primary human astrocytes): reduced; interleukin-1β-induced secretion of interleukin 6 (primary human astrocytes): reduced; lipopolysaccharide-induced secretion of monocyte chemotactic protein-1 (MCP-1) (primary human microglia): reduced; in vitro uptake of amyloid β (Aβ) (astrocytes and microglia): not affected
